# Source: US20030148954A1, “Agents and methods for modulating activator protein-1-mediated cellular processes” (Wisconsin Alumni Research Foundation, priority 2001, published 2003)
# Legend:
# AP-1 [1] = experiment: AP-1 luciferase reporter, transient transfection of HeLa cells; format: cell-based, human; details: TPA 5 nM 16 h
# Excerpt: Plasmids—The pBabe-NIC-1 (pNIC-1) expression vector encoding constitutively active Notch-1 (NIC-1) was described previously (36,37,51). This vector was derived from the pBabe-puro retroviral vector and includes a cDNA sequence encoding amino acids 1759-2556 of human Notch-1 with a Myc tag fused to its carboxyl terminus. Human NIC-1 deletion mutants were generated by PCR using a full-length human Notch-1 expression vector as the template. The Notch-dependent reporter plasmid containing four CBF1 binding sites and an simian virus 40 promoter fused to luciferase (p4×CBF1luc) was described previously (52). The AP-1 reporter plasmid (p1×AP1luc) containing a collagenase promoter fragment (−73/+67) with a single AP-1 binding site in the luciferase reporter vector pGL2-basic (Promega) was described previously (53). The NF-κB reporter plasmid (p3×κBluc) containing three NF-κB binding sites and a minimal promoter fused to luciferase was a kind gift of Dr. Shigeki Miyamoto (University of Wisconsin Medical School). […]
# For each transfection, cells were incubated for 26 h after transfection and then treated with TPA (final concentration: 5 nM) or the vehicle (DMSO). […] Luciferase activity was normalized by the protein content of the lysates, determined by Bradford assay using γ-globulin as a standard.
# c-Jun = experiment: Western blot of c-Jun protein and c-Jun phosphorylation; format: cell-based, human
# Protocol: Stable Transfection—K562 cells were stably transfected by electroporation with a Bio-Rad Gene pulser electroporator. Cells (5×10^6) were washed with ice-cold PBS, resuspended in 0.5 ml of ice-cold PBS, mixed with 5 μg linearized plasmid DNA, and subjected to electroporation (960 microfarad; 220 V) in a 0.4 cm-wide electroporation cuvette (BTX). pBabe and pNIC-1 were linearized with NotI. Cells were then added to 20 ml of complete IMEM, grown for 48 h, and diluted in complete IMEM containing 1.5 μg/ml puromycin (pools of K562-Babe and K562-NIC-1 cells). Stably transfected cells were analyzed for erythroid differentiation as soon as the pools were generated by benzidine staining to reduce the probability of phenotypic changes that may result from prolonged growth.
# Cells were washed once with ice-cold PBS, cell pellets were resuspended in 30 μl ice-cold PBS and were immediately boiled in 70 μl SDS sample buffer for 10 min. Proteins (10 μl) were resolved by SDS-PAGE on a 10% acrylamide gel and transferred to Immobilon P membrane (Millipore). After blocking membranes in 5% nonfat dry milk in TBST (10 mM Tris pH 8.0, 150 mM NaCl, 0.3% Tween-20), membranes were incubated with primary antibody (diluted 1:1000 in dry milk/TBST). […] Antigen-antibody complexes were detected with ECL Plus™ (Amersham Life Science) according to manufacturer's instructions.
# AP-1 [2] = experiment: EMSA of AP-1 DNA binding activity in nuclear extracts; design: species or system human; details: 5 nM TPA 2 hours, nuclear extracts
# Protocol: K562-Babe and K562-NIC-1 cells were harvested by centrifugation for 10 min at 150×g. Cells were washed once with ice-cold PBS and resuspended in 1.5 volumes of nuclei lysis buffer (10 mM Tris-HCl, pH 7.5, 10 mM NaCl, 3 mM MgCl2, and 0.2% Nonidet P-40) on ice for 3 min. Nuclei were collected by centrifugation for 5 min at 600×g. Nuclei were washed by gentle resuspension in 1.5 volumes of nuclei wash buffer (10 mM Tris-HCl, pH 7.5, 10 mM NaCl, and 3 mM MgCl2) and then collected by centrifugation for 4 min at 600×g. […] Nuclei were extracted for 45 min at 4° C. with constant mixing. The suspension was then centrifuged for 30 min at 150,000×g. Aliquots of the supernatant were frozen on dry ice and stored at -80° C. The protein concentration as measured by the Bradford assay, with y-globulin as a standard ranged from 4 to 10 mg/ml. DTT (5 mM), phenylmethanesulfonyl fluoride (0.5 mM), leupeptin (20 μg/ml), β-glycerophosphate (800 μM), sodium vanadate (1 mM), and sodium molybdate (50 μM) were included in all buffers. Electrophoretic Mobility Shift Assay-EMSA assays were done as described previously (54). AP-1 DNA binding activity was measured by EMSA with a double-stranded end-labeled oligonucleotide [NT] containing a high affinity AP-1 binding site. […] DNA binding activity was quantitated by PhosphorImager analysis with ImageQuant software (Molecular Dynamics).
substance,measurement,setting,value
"NIC-1: constitutively active Notch-1 intracellular domain, amino acids 1759-2556 of human Notch-1 with carboxyl-terminal Myc tag, expressed from pBabe-NIC-1",repression of TPA-induced AP-1-mediated activation,AP-1 [1],repressed
same,effect on time-dependent induction of phosphorylation of c-Jun (serine 73) and JunD,"c-Jun; 5 nM TPA for 0, 5, 10, or 20 min",no effect
same,effect on c-Jun protein levels,c-Jun; K562-NIC-1 versus K562-Babe,did not affect
same,AP-1 complexes formed with extracts from K562-NIC-1 versus K562-Babe cells,AP-1 [2],no apparent qualitative or quantitative differences
